In the experiment the test system is L1210 leukemia ip in BDF1 mice, survival T/C. As to the kind of experiment: NCI In Vivo Anticancer Drug Screen. Data for tumor model L1210 Leukemia (intraperitoneal) in B6D2F1 (BDF1) mice. The note with it: endpoint: mean survival time, higher = longer survival. A digest of the protocol: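 Ratio derived from survival: compound-dosed mice over vehicle-dosed mice, all bearing a transplantable tumor.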

[1] abbreviates: dose: 100.0 mg/kg/injection, schedule: Q01DX001 (ip), vehicle: Klucel (hydroxypropylcellulose) (HPC).
Setting [2] is: dose: 200.0 mg/kg/injection, schedule: Q01DX001 (ip), vehicle: Klucel (hydroxypropylcellulose) (HPC).
Setting [3] is: dose: 100.0 mg/kg/injection, schedule: Q01DX001 (ip), vehicle: saline.
Where [4] appears, read: dose: 200.0 mg/kg/injection, schedule: Q01DX001 (ip), vehicle: saline.
The mark [5] stands for this setting: dose: 400.0 mg/kg/injection, schedule: Q01DX001 (ip), vehicle: saline.
[6] abbreviates: dose: 50.0 mg/kg/injection, schedule: Q04DX003 (ip), vehicle: Klucel (hydroxypropylcellulose) (HPC).
[7] abbreviates: dose: 100.0 mg/kg/injection, schedule: Q01DX009 (ip), vehicle: Klucel (hydroxypropylcellulose) (HPC).
Setting [8] is: dose: 100.0 mg/kg/injection, schedule: Q04DX003 (ip), vehicle: Klucel (hydroxypropylcellulose) (HPC).
[9] abbreviates: dose: 200.0 mg/kg/injection, schedule: Q01DX009 (ip), vehicle: Klucel (hydroxypropylcellulose) (HPC).
The mark [10] stands for this setting: dose: 200.0 mg/kg/injection, schedule: Q04DX003 (ip), vehicle: Klucel (hydroxypropylcellulose) (HPC).
Where [11] appears, read: dose: 400.0 mg/kg/injection, schedule: Q01DX009 (ip), vehicle: Klucel (hydroxypropylcellulose) (HPC).
Setting [12] is: dose: 400.0 mg/kg/injection, schedule: Q04DX003 (ip), vehicle: Klucel (hydroxypropylcellulose) (HPC).
[13] abbreviates: dose: 100.0 mg/kg/injection, schedule: Q01DX001 (ip), vehicle: saline with Tween-80.
Setting [14] is: dose: 200.0 mg/kg/injection, schedule: Q01DX001 (ip), vehicle: saline with Tween-80.
Setting [15] is: dose: 400.0 mg/kg/injection, schedule: Q01DX001 (ip), vehicle: saline with Tween-80.
The mark [16] stands for this setting: dose: 100.0 mg/kg/injection, schedule: Q01DX009 (ip), vehicle: saline with Tween-80.
[17] abbreviates: dose: 100.0 mg/kg/injection, schedule: Q01DX001 (ip), vehicle: carboxymethylcellulose (CMC).
The mark [18] stands for this setting: dose: 200.0 mg/kg/injection, schedule: Q01DX001 (ip), vehicle: carboxymethylcellulose (CMC).
[19] abbreviates: dose: 400.0 mg/kg/injection, schedule: Q01DX001 (ip), vehicle: carboxymethylcellulose (CMC).

In PubChem BioAssay AID248 (DTP/NCI, 2004) one finds T/C data, which are given here for 20 compounds.

“And” between values parts separate entries of the source, which are not always exact repeats. Equal entries are not always repeated. Toxic doses and inconclusive results are not listed.

For the compound `O=C(Nc1ccc(C2=NCC(O)CN2)cc1)c1ccc(C(=O)Nc2ccc(C3=NCC(O)CN3)cc2)c(Cl)c1` (stereo not drawn), the T/C was 96 % of control (dose: 12.0 micrograms/kg/injection, schedule: Q01DX015 (ip), vehicle: water); 114 % of control (dose: 25.0 micrograms/kg/injection, schedule: Q01DX015 (ip), vehicle: water); 96 % of control (dose: 50.0 micrograms/kg/injection, schedule: Q01DX015 (ip), vehicle: water); 102 % of control (dose: 75.0 micrograms/kg/injection, schedule: Q01DX015 (ip), vehicle: water).
Consider `COc1ccc(Br)cc1C1OC(=O)c2c(OC)c(OC)cc(O)c21` (stereo not drawn), for which the T/C is 96 % of control under setting [1]; 98 % of control under setting [2]; 94 % of control (dose: 400.0 mg/kg/injection, schedule: Q01DX001 (ip), vehicle: Klucel (hydroxypropylcellulose) (HPC)).
Consider `Nc1[nH]c(=O)[nH]c(=O)c1N=Nc1ccc(S(=O)(=O)Nc2ccccn2)cc1`, for which the T/C reads like this: under setting [3], 98 % of control; under setting [4], 96 % of control; under setting [5], 104 % of control.
Turning to `O=c1oc(-c2ccccc2I)nc2ccccc12`, the T/C by setting is: under setting [6], 88 % of control; under setting [7], 95 % of control; under setting [8], 103 % of control; under setting [9], 97 % of control; under setting [10], 97 % of control; under setting [11], 88 % of control. The T/C under setting [12] was 104 % of control.
Turning to `FC(F)(F)c1cccc(NC(=S)N2CCOCC2)c1`, the T/C by setting is: under setting [7], 98 % of control; under setting [9], 104 % of control; under setting [11], 96 % of control.
In the case of `O=C(O)c1cc(Br)c(OCc2ccccc2)c(Br)c1`, the T/C runs as follows: under setting [13], 101 % of control; under setting [14], 104 % of control; under setting [15], 104 % of control.
Take `O=C1CCCCC1CC1(O)C(=O)NC2CCC(Br)CC21` (stereo not drawn): the T/C by setting is: (dose: 200.0 mg/kg/injection, schedule: Q04DX002 (ip), vehicle: Klucel (hydroxypropylcellulose) (HPC)) 100 % of control; (dose: 400.0 mg/kg/injection, schedule: Q04DX002 (ip), vehicle: Klucel (hydroxypropylcellulose) (HPC)) 92 % of control.
As to `O=C1NC(=O)C2(CCc3ccccc32)N1` (stereo not drawn), the T/C runs as follows: (dose: 50.0 mg/kg/injection, schedule: Q01DX009 (ip), vehicle: Klucel (hydroxypropylcellulose) (HPC)) 105 % of control; under setting [7], 100 % of control; under setting [8], 108 % of control; under setting [9], 98 % of control; under setting [10], 100 % of control; under setting [12], 94 % of control.
Consider `Brc1cscc1-c1cccc2ccccc12`, for which the T/C is 86 % of control under setting [16] and 86 % of control (dose: 200.0 mg/kg/injection, schedule: Q01DX009 (ip), vehicle: saline with Tween-80).
In the case of `CS(=O)(=O)c1nc2ccccc2s1`, the T/C runs as follows: (dose: 25.0 mg/kg/injection, schedule: Q01DX009 (ip), vehicle: saline with Tween-80) 97 % of control; (dose: 25.0 mg/kg/injection, schedule: Q04DX003 (ip), vehicle: Klucel (hydroxypropylcellulose) (HPC)) 101 % of control; (dose: 50.0 mg/kg/injection, schedule: Q01DX009 (ip), vehicle: saline with Tween-80) 92 % of control; under setting [6], 106 % of control; under setting [16], 107 % of control; under setting [8], 106 % of control.
As for `BrC1C2C3C=CC4C(C=C3)C4C12` (stereo not drawn), the T/C is, setting by setting: (dose: 50.0 mg/kg/injection, schedule: Q01DX001 (ip), vehicle: Klucel (hydroxypropylcellulose) (HPC)) 100 % of control and 101 % of control; under setting [1], 98 % of control and 111 % of control; under setting [2], 108 % of control and 93 % of control.
With `CN(Cc1cc(Br)cc(Br)c1O)C1CC2CCC1(C)C2(C)C` (stereo not drawn), the T/C runs as follows: under setting [8], 88 % of control; under setting [10], 95 % of control; under setting [12], 88 % of control.
In the case of `O=C(O)C1Cc2c([nH]c3ccccc23)C(CCCCO)N1` (stereo not drawn), the T/C under setting [17] was 96 % of control.
For the compound `CC1(C)N=C(N)N=C(N)N1c1ccc(CCc2ccc(Cl)cc2S(=O)(=O)F)c(Cl)c1`, the T/C is 91 % of control under setting [13], 94 % of control under setting [14] and 97 % of control under setting [15].
For `COc1ccccc1CN1CCCN(Cc2ccccc2OC)C1c1cc(I)cc(I)c1O`, the T/C was 98 % of control under setting [17], 98 % of control under setting [18] and 93 % of control under setting [19].
As for `CC(C)Cn1cnc2c(=S)nc(N)[nH]c21`, the T/C (dose: 6.0 mg/kg/injection, schedule: Q01DX015 (ip), vehicle: other) is 107 % of control; the T/C (dose: 9.0 mg/kg/injection, schedule: Q01DX015 (ip), vehicle: carboxymethylcellulose (CMC)) was 103 % of control; the T/C (dose: 9.0 mg/kg/injection, schedule: Q01DX015 (ip), vehicle: other) is 111 % of control; the T/C (dose: 13.0 mg/kg/injection, schedule: Q01DX015 (ip), vehicle: carboxymethylcellulose (CMC)) was 104 % of control; the T/C (dose: 20.0 mg/kg/injection, schedule: Q01DX015 (ip), vehicle: carboxymethylcellulose (CMC)) is 109 % of control; the T/C (dose: 21.0 mg/kg/injection, schedule: Q01DX015 (ip), vehicle: other) was 150 % of control. In addition, the T/C runs as follows: (dose: 22.0 mg/kg/injection, schedule: Q01DX001 (ip), vehicle: carboxymethylcellulose (CMC)) 114 % of control; (dose: 44.0 mg/kg/injection, schedule: Q01DX015 (ip), vehicle: carboxymethylcellulose (CMC)) 109 % of control; (dose: 60.0 mg/kg/injection, schedule: Q01DX015 (ip), vehicle: other) 124 % of control; (dose: 66.0 mg/kg/injection, schedule: Q01DX015 (ip), vehicle: carboxymethylcellulose (CMC)) 98 % of control; under setting [17], 155 % of control; (dose: 100.0 mg/kg/injection, schedule: Q01DX015 (ip), vehicle: carboxymethylcellulose (CMC)) 98 % of control. Besides, the T/C is, setting by setting: (dose: 100.0 mg/kg/injection, schedule: Q01DX015 (ip), vehicle: other) 121 % of control; under setting [18], 153 % of control and 161 % of control; under setting [19], 112 % of control.
On to `N/N=C\c1cnnc2ccccc12`, for which the T/C runs as follows: under setting [3], 95 % of control; under setting [4], 95 % of control; under setting [5], 98 % of control.
Consider `NC(=O)C1C2CC3OC(=O)C1C3C2` (stereo not drawn), for which the T/C is 93 % of control and 103 % of control (dose: 100.0 mg/kg/injection, schedule: Q04DX003 (ip), vehicle: saline); 102 % of control and 100 % of control (dose: 200.0 mg/kg/injection, schedule: Q04DX003 (ip), vehicle: saline); 96 % of control and 88 % of control (dose: 400.0 mg/kg/injection, schedule: Q04DX003 (ip), vehicle: saline).
As for `Cc1ccc(NCCN2CCOCC2)c2c(=O)c3ccccc3sc12`, the T/C is 92 % of control (dose: 9.0 mg/kg/injection, schedule: Q01DX Z (ip), vehicle: methylcellulose (MC)); 104 % of control (dose: 14.0 mg/kg/injection, schedule: Q01DX Z (ip), vehicle: methylcellulose (MC)); 97 % of control (dose: 21.0 mg/kg/injection, schedule: Q01DX Z (ip), vehicle: methylcellulose (MC)); 109 % of control (dose: 32.0 mg/kg/injection, schedule: Q01DX Z (ip), vehicle: methylcellulose (MC)).
`CCC/C=[CH]/[Hg][Cl]`: the T/C runs as follows: (dose: 6.25 mg/kg/injection, schedule: Q01DX009 (ip), vehicle: other) 93 % of control; (dose: 6.25 mg/kg/injection, schedule: Q04DX003 (ip), vehicle: saline sonified) 95 % of control; (dose: 12.5 mg/kg/injection, schedule: Q01DX009 (ip), vehicle: other) 94 % of control; (dose: 12.5 mg/kg/injection, schedule: Q04DX003 (ip), vehicle: saline sonified) 95 % of control; (dose: 25.0 mg/kg/injection, schedule: Q01DX009 (ip), vehicle: other) 97 % of control; (dose: 25.0 mg/kg/injection, schedule: Q04DX003 (ip), vehicle: saline sonified) 106 % of control.
